Legend:
[1] = target: T1, human α4β2-nAChR (Homo sapiens, UniProt P17787+P43681); assay: Whole-cell patch-clamp of human α4β2-nAChR-mediated currents in transfected SH-EP1 cells; type: cell-based; conditions: for ACh-induced currents, peak current component / ACh-induced currents, steady-state component: 30 μM co-applied with 1 mM ACh; for 1 mM ACh-induced whole-cell currents: 1 min pretreatment
T1 construct: expressed in transfected cells; host or cells: human SH-EP1 cell line
Description: The effects of THPBs on α4β2-nAChR function were evaluated in vitro. Specifically, whole-cell patch-clamp recording technique was employed in α4β2-nAChRs transfected with a human SH-EP1 cell-line. FIG. 1A provides graphs illustrating the effects of a 1 min pre-treatment of 30 μM /-THP, d/-THB or /-SPD on 1 mM ACh-induced current in SH-EP1 cell line.
Thus, when THPBs are co-applied with an agonist, it affects receptor function after agonist opens channels.
(§1) The effects of THB-induced inhibition on the α4β2-nAChR function were evaluating using human α4β2-nAChRs (transfected to SH-EP1 cells) and rat α4β2-nAChRs natively expressed in VTA DA neurons. The 30 μM THB (without pretreatment) inhibited both types (human and rat) of α4β2-nAChR function, and compared to peak current, the steady-state current portion was more sensitive to THB (FIGS. 3A-3C).
The effect of different concentrations of THB on 1 mM ACh-induced whole-cell currents were further examined in human α4β2-nAChRs in SH-EP1 cells. […] The steady-state current was more sensitive to THB than the peak current.
FIG. 9A provides a graph of traces of co-application of THB6 on ACh-induced current. FIG. 9B provides a graph of traces of the effect of 1 min pretreatment of THB6 on ACh-induced current. […] Each bar of the bar graph presented in FIG. 9C represents the mean from 4 cells and vertical bars indicate +Se. A ^“*” was given to indicate p<0.05, while a ^“***” was given to indicate p<0.001 in FIG. 9C. Data was analyzed with One-Way ANOVA.
A dosage containing 100 μM THB6 compound was evaluated on human and mouse α4β2-nAChR-mediated currents. FIG. 10A provides a graph of traces of ACh-induced whole-cell currents in human α4β2-nAChRs transfected in human SH-EP1 cells. FIG. 10B provides a graph of traces of ACh-induced whole-cell currents in mouse α4β2-nAChRs transfected in VTA dopamine neurons. […] Each bar in the bar graph of FIG. 10C represents the mean from 4 cells and vertical bars indicate +SE. A ^“*” was given to indicate p<0.05. A ^“***” was given to indicate p<0.001 in FIG. 9C. Data was analyzed with One-Way ANOVA.

[2] = tested on: VTA DA neurons; assay: Miniature EPSCs in VTA DA neuron, patch-clamp whole-cell recording in VTA slice; type: cell-based
Description: Thus, the effect of /-THP on this nicotine-induced EPSC enhancement was studied. […] Co-application of 10 μM /-THP abolished nicotine-induced enhancement of mEPSCs (see, FIGS. 5A and 5C).

[3] = tested on: male C57BL/6 mice; assay: Nicotine-induced conditioned place preference (CPP); type: in vivo, mouse
Description: A conventional biased CPP was performed on male C57BL/6 mice. Mice were put into two-compartment CPP apparatus (Med Associate Inc. VT) for accommodation once (20 min) a day for 3 days and for monitoring the preference to any specific side of compartment. Mice were divided into 3 groups (5 mice per group) and received 2 training sessions per day for 4 days.
When the mouse received a saline injection, it was placed into the opposite side for 20 min. […] Alternatively, the mice of the second group received saline injection and placed into the opposite side. The third group of mice (the I-THP only group) received /-THP i.p. injection (10 mg/Kg) and were placed into the least preferred side for 20 min. Alternatively, the mice received a saline injection and were placed into the opposite side.
On the 5th day, mice were tested for place preference by allowing free access to both conditioning compartments for 20 minutes. The foregoing 4-day training session was repeated on the 6th day. Mice of group 1 received their treatments without change. […] Alternatively, the mice of group 2 received a saline injection and then received a saline injection 5 min later. After the saline injection, the mice of group 2 were placed into the opposite chamber for 4 days. On the 10th day, the mice were tested for place preference for 20 min (See, FIG. 8).

[4] = target: T2, mouse α4β2-nAChRs (Mus musculus, UniProt O70174+Q9ERK7); assay: ACh-induced whole-cell currents of mouse α4β2-nAChRs in VTA dopamine neurons; type: cell-based; conditions: 100 μM
T2 construct: expressed in transfected cells; host or cells: VTA dopamine neurons
Description: A dosage containing 100 μM THB6 compound was evaluated on human and mouse α4β2-nAChR-mediated currents. FIG. 10A provides a graph of traces of ACh-induced whole-cell currents in human α4β2-nAChRs transfected in human SH-EP1 cells. FIG. 10B provides a graph of traces of ACh-induced whole-cell currents in mouse α4β2-nAChRs transfected in VTA dopamine neurons. […] FIGS. 10C and 10D provide bar graphs showing the statistic result that THB6 inhibits both peak and steady-state compounds of ACh-induced currents. Each bar in the bar graph of FIG. 10C represents the mean from 4 cells and vertical bars indicate +SE. A ^“*” was given to indicate p<0.05. A ^“***” was given to indicate p<0.001 in FIG. 9C. Data was analyzed with One-Way ANOVA.

[5] = tested on: VTA DA neurons; assay: Action potential firing in mouse VTA slices, cell-attached patch recording; type: cell-based
Description: Based on the evaluation of a dosage containing THB6 compounds on VTA slices, it was determined that THB6 prevents nicotine-induced firing rate increase in VTA DA neurons. […] FIG. 11B is a bar graph showing the statistical result of the normalized firing rate of THB6 compounds.

[6] = tested on: VTA DA neurons; assay: Extracellular single unit recording of VTA DA neuron firing in anesthetized mice; type: in vivo, mouse
Description: The effect of systemic injection of THB6 on mouse VTA DA neuron firing was evaluated by applying 10 mg/kg via an IV to anesthetized mice and extracellular single unit recordings were performed. FIG. 12A provides an image of the VTA slice, showing the recording electrode track and recording site after the experiment. The location of the recording electrode track is depicted in FIG. 12B.

[7] = tested on: mice; assay: Mouse locomotor activity after systemic injection; type: in vivo
Text: Systemic injection of dosages containing THB6 to mice and the mice's locomotive activity was studied.

[8] = target: T1, human α4β2-nAChR; assay: 86Rb+ efflux assay, carbachol-induced response, heterologously expressed α4β2-nAChR; type: cell-based
[9] = target: T1, human α4β2-nAChR; assay: 3H-epibatidine (H-EBDN) binding and binding competition on heterologously expressed α4β2-nAChR; conditions: FIG. 2A
[10] = tested on: VTA DA neurons; assay: In vivo VTA DA neuronal firing in anesthetized rats; set-up: species or system rat
Description: It was tested whether systemic injection of THB affected VTA DA neuron firing. As shown in FIGS. 6A-6C, injection of THB (1 mg/kg, i.v.) increased VTA DA neuron firing rate, bursting fraction (FIG. 6A), and slow oscillations (FIGS. 6B-6D). […] THB appears to eliminate nicotinic effect via its blockade of nAChRs. Therefore, the actions of THB are consistent with the double target hypothesis that THB blocks nAChRs (especially α4β2-nAChRs) and enhances DA release from VTA to DA neuronal targets.

[11] = target: T3, rat α4β2-nAChRs (Rattus norvegicus, UniProt P09483+P12390); assay: Whole-cell currents of rat α4β2-nAChRs natively expressed in VTA DA neurons; type: cell-based; conditions: 30 μM, without pretreatment
T3 construct: rat α4β2-nAChRs natively expressed in VTA DA neurons; endogenous in cells; host or cells: rat VTA dopamine neurons
Description: as §1

[12] = 1 mg/kg, i.v., anesthetized rats

Which “ACh-induced currents, peak current component” value ([1]; SH-EP1 cells) does the source give for `COc1cc2c(cc1OC)[C@@H]1Cc3ccc(OC)c(OC)c3CN1CC2` [/-THP, /-tetrahydropalmatine] here?
Its value is “only mildly reduced”.

And the “ACh-induced currents, steady-state component” value ([1]; SH-EP1 cells)?
The value was “suppressed”.

And the “1 mM ACh-induced whole-cell currents” value ([1]; 30 μM, SH-EP1 cells)?
The value was “dramatically eliminated”.

And the IC50 ([1]; co-application with 1 mM ACh, SH-EP1 cells, n=8, read-out: IC50 value for current net charge)?
The IC50 was 5.2 µM.

And the Hill coefficient ([1]; co-application with 1 mM ACh, current net charge)?
The Hill coefficient was 0.4.

What about the “nicotine-induced enhancement of mEPSCs” value ([2]; 10 μM co-applied with 1 μM nicotine) of the same molecule?
The value was “abolished”.

And the “nicotine rewarding effects after CPP has been established” value ([3]; 10 mg/Kg i.p. 5 min before nicotine 1.5 mg/Kg)?
The value was “counteracts”.

How did the “peak component of ACh-induced currents” value ([1]; 30 μM, with and without 1 min pretreatment, FIG. 9C) turn out when `COc1ccc2c(c1OC)CN1CCc3cc4oc(=O)oc4cc3C1C2` (centres unmarked) [THB6] was run?
The value was “inhibiting”.

What about the “peak and steady-state components of ACh-induced currents, human α4β2-nAChRs” value ([1]; 100 μM, SH-EP1 cells) of the same molecule?
Its value is “inhibits”.

What about the “peak and steady-state components of ACh-induced currents, mouse α4β2-nAChRs” value [4] of the same molecule?
The value was “inhibits”.

What about the “DA neuronal firing, compound alone” value [5] of the same molecule?
Its value is “did not affect”.

And the nicotine-induced firing increase [5]?
Its nicotine-induced firing increase is “prevented”.

What about the “neuronal firing rate, compound alone” value ([6]; 10 mg/kg IV, anesthetized mice) of the same molecule?
Its value is “did not affect”.

And the “nicotine-induced increase of firing rate” value ([6]; 10 mg/kg IV, anesthetized mice)?
Its value is “prevented”.

What about the “nicotine-induced increase of locomotor activity” value ([7]; pretreatment) of the same molecule?
Its value is “prevented”.

What about the “locomotor activity, compound alone” value ([7]; systemic injection) of the same molecule?
The value was “did not alter”.

For `COc1ccc2c(c1OC)CN1CCc3cc4c(cc3C1C2)OCO4` (centres unmarked) [THB, tetrahydroberberine], which IC50 [8] is on record?
The IC50 was 7 µM.

And the “ACh-induced currents, peak current component” value ([1]; SH-EP1 cells)?
The value was “only mildly reduced”.

And the “ACh-induced currents, steady-state component” value ([1]; SH-EP1 cells)?
Its value is “suppressed”.

And the “1 mM ACh-induced whole-cell currents” value ([1]; 30 μM, SH-EP1 cells)?
Its value is “dramatically eliminated”.

And the “human α4β2-nAChR function (ACh-induced currents)” value ([1]; 30 μM, without pretreatment)?
Its value is “inhibited”.

And the IC50 ([1]; IC50 value of Ip (peak current), 1 mM ACh-induced whole-cell currents, SH-EP1 cells)?
Its IC50 is 2.2 µM.

And the IC50 ([1]; IC50 value of Is (steady-state current), 1 mM ACh-induced whole-cell currents, SH-EP1 cells)?
Its IC50 is 37 µM.

What about the “affinity in H-EBDN binding competition” value [9] of the same molecule?
The value was “high affinity”.

And the “VTA DA neuron bursting fraction” value [10, 12]?
The value was “increased”.

And the “VTA DA neuron firing rate” value [10, 12]?
Its value is “increased”.

And the “VTA DA neuron slow oscillations” value [10, 12]?
The value was “increased”.

What about the “effect of nicotine on VTA DA firing rate and bursting fraction after THB” value ([10]; nicotine 0.5 mg/kg i.v. 5 min after THB injection) of the same molecule?
The value was “failed to increase”.

And the “rat α4β2-nAChR function (ACh-induced currents)” value [11]?
The value was “inhibited”.

`CN1CCCC1c1cccnc1` (centres unmarked) [nicotine] was tested. Which mEPSC amplitude ([2]; FIG. 5D) did it give?
Its mEPSC amplitude is “did not affect”.

And the mEPSC frequency ([2]; bath application of 1 μM)?
Its mEPSC frequency is “significantly increased”.

What about the conditioned place preference ([3]; 1.5 mg/Kg) of the same molecule?
The conditioned place preference was “induced significant CPP”.

And the “neuronal firing rate at 2 minutes after injection” value ([6]; systemic injection, back to normal level after 8 minutes)?
The value was “increases”.

With /-stepholidine [/-SPD] as the molecule, how does the IC50 ([8]; FIG. 2B, read-out: IC50 value, carbachol-induced 86Rb+ efflux response) read?
Its IC50 is 30 µM.

What about the “ACh-induced currents, peak current component” value ([1]; SH-EP1 cells) of the same molecule?
The value was “only mildly reduced”.

What about the “ACh-induced currents, steady-state component” value ([1]; SH-EP1 cells) of the same molecule?
The value was “suppressed”.

And the “1 mM ACh-induced whole-cell currents” value ([1]; 30 μM, SH-EP1 cells)?
Its value is “dramatically eliminated”.

And the “affinity in H-EBDN binding competition” value [9]?
Its value is “lower affinity”.

From patent US20230096103A1, “BERBERINE COMPOUNDS, BERBERINE COMPOSITIONS, AND METHODS FOR ADMINISTRATION THEREOF” (Dignity Health, priority 2020, published 2023)
